Here are results for 15 compounds from PubChem BioAssay (NCI).

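Assay format: 96-well plates, 48-hour exposure. TGI is the concentration that stops growth completely.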

Among the test systems are HL-60(TB) leukemia; MDA-MB-231 breast; NCI-H522 lung; NCI/ADR-RES ovarian; SK-OV-3 ovarian; SNB-19 CNS; SR leukemia; UACC-257 melanoma.
Holding throughout (test): growth of human tumour cells (NCI), 48 h

Turning to `COc1ccccc1NC(=S)N/N=C/c1cccc(C)n1`, the TGI with HL-60(TB) leukemia was over 29.8 µM; in the assay on MDA-MB-231 breast, over 100 µM; in the assay with NCI-H522 lung it was over 54.8 µM; in the assay with NCI/ADR-RES ovarian it was over 31.1 µM; in the assay on SK-OV-3 ovarian it was over 44.4 µM; in the assay with SNB-19 CNS it was over 100 µM. Besides, the TGI is 10.4 µM in the assay on SR leukemia and over 100 µM in the assay on UACC-257 melanoma.
Consider `CC(=O)c1sc2[n+](c1C)C(=O)/C(=C\c1ccccc1Cl)S2`, for which the TGI in the assay with HL-60(TB) leukemia was 39 µM; in the assay with MDA-MB-231 breast, 52.9 µM; in the assay on NCI-H522 lung, 39 µM; with NCI/ADR-RES ovarian it was 61.6 µM; in the assay with SK-OV-3 ovarian it was 47.7 µM; in the assay with SNB-19 CNS, 47.6 µM. For the same compound, the TGI was 52.5 µM with SR leukemia and 42.3 µM in the assay with UACC-257 melanoma.
On to `O=C(Nc1ccc2ccccc2c1)c1cc2cc(CCl)ccc2oc1=O`, for which the TGI with HL-60(TB) leukemia, with MDA-MB-231 breast, with NCI-H522 lung, with NCI/ADR-RES ovarian, in the assay on SK-OV-3 ovarian and with SNB-19 CNS was over 100 µM in each case. Moreover, the TGI in the assay with SR leukemia and in the assay on UACC-257 melanoma was over 100 µM in each case.
In the case of `c1cc2c(cc1C1=NCCN1)c1cc(C3=NCCN3)ccc1n2CC1CCCCC1`, the TGI was 59.6 µM in the assay with HL-60(TB) leukemia; over 100 µM with MDA-MB-231 breast; 21.6 µM in the assay with NCI-H522 lung; over 100 µM with NCI/ADR-RES ovarian; 81.8 µM in the assay with SK-OV-3 ovarian; 46.3 µM in the assay with SNB-19 CNS. The TGI with SR leukemia was determined as 38.6 µM; in the assay on UACC-257 melanoma it was 59.3 µM.
For `CCOC(=O)C(C/C=C/CO)N(C)C(=O)OC(C)(C)C` (stereo not given), the TGI in the assay on HL-60(TB) leukemia was over 100 µM; with MDA-MB-231 breast it was over 100 µM; in the assay with NCI-H522 lung, 61.4 µM; in the assay with NCI/ADR-RES ovarian it was over 100 µM; with SK-OV-3 ovarian, over 100 µM; in the assay with SNB-19 CNS it was over 100 µM. In addition, the TGI in the assay with SR leukemia and in the assay with UACC-257 melanoma was over 100 µM throughout.
Regarding `CSCCCNC(=O)[C@H](CSC)NC(=O)c1csc(CCNC(=O)[C@@H](NSc2ccccc2[N+](=O)[O-])C(C)O)n1` (stereo not given in full), the TGI in the assay on HL-60(TB) leukemia, in the assay with MDA-MB-231 breast, in the assay with NCI-H522 lung, in the assay with NCI/ADR-RES ovarian, with SK-OV-3 ovarian and with SNB-19 CNS was over 100 µM throughout. Further, the TGI in the assay on SR leukemia and with UACC-257 melanoma was over 100 µM each time.
Regarding `CCNC(=S)N/N=C(\C)c1cccc(C)n1`, the TGI is 53.6 µM with HL-60(TB) leukemia; over 100 µM with MDA-MB-231 breast; 26 µM in the assay on NCI-H522 lung; over 100 µM with NCI/ADR-RES ovarian; over 100 µM with SK-OV-3 ovarian; over 100 µM with SNB-19 CNS. The TGI in the assay with SR leukemia and in the assay on UACC-257 melanoma was over 100 µM in each case.
In the case of `Cc1ccc2c(c1C)C(=O)/C(=C/c1cccc(C)c1C(=O)O)C2`, the TGI in the assay on HL-60(TB) leukemia, in the assay on MDA-MB-231 breast, with NCI-H522 lung, in the assay with NCI/ADR-RES ovarian, with SK-OV-3 ovarian and in the assay with SNB-19 CNS was over 100 µM in each case. Besides, the TGI in the assay with SR leukemia and in the assay on UACC-257 melanoma was over 100 µM each time.
`CN(C)CCNC(=O)c1c(O)ccc2c1c1c(n2CCc2ccccc2)C(=O)c2ccccc2C1=O`: the TGI worked out at 18.1 µM with HL-60(TB) leukemia; 15 µM in the assay with MDA-MB-231 breast; 23 µM in the assay on NCI-H522 lung; 29.4 µM in the assay on NCI/ADR-RES ovarian; 31.5 µM with SK-OV-3 ovarian; 23.8 µM with SNB-19 CNS. Also, the TGI in the assay with SR leukemia was determined as 7.11 µM; in the assay on UACC-257 melanoma it was 10.4 µM.
As to `N#Cc1nc(-c2cccc(-c3nc(C#N)c(N)o3)n2)oc1N`, the TGI with HL-60(TB) leukemia, with MDA-MB-231 breast, with NCI-H522 lung, in the assay with NCI/ADR-RES ovarian, in the assay on SK-OV-3 ovarian and in the assay on SNB-19 CNS was over 100 µM in each case. For the same compound, the TGI with SR leukemia and in the assay on UACC-257 melanoma was over 100 µM each time.
Regarding `COc1cc(/C=N/NC2=NCCN2)ccc1O`, the TGI in the assay on HL-60(TB) leukemia, in the assay with MDA-MB-231 breast, with NCI-H522 lung, in the assay with NCI/ADR-RES ovarian, in the assay with SK-OV-3 ovarian and with SNB-19 CNS was over 100 µM each time. The TGI in the assay with SR leukemia and in the assay on UACC-257 melanoma was over 100 µM throughout.
Regarding `COC(=O)C(NC(=O)OC(C)(C)C)P(=O)(OC)OC` (stereo not given), the TGI in the assay with HL-60(TB) leukemia, in the assay with MDA-MB-231 breast, with NCI-H522 lung, in the assay on NCI/ADR-RES ovarian, in the assay on SK-OV-3 ovarian and in the assay with SNB-19 CNS was over 100 µM in each case. Moreover, the TGI in the assay on SR leukemia and in the assay with UACC-257 melanoma was over 100 µM each time.
Consider `CC(C)(C)[Si](C)(C)OC[C@H](/C=C\CCCC(=O)O)NC1(c2ccccc2)c2ccccc2-c2ccccc21`, for which the TGI with HL-60(TB) leukemia is 37 µM; in the assay on MDA-MB-231 breast, 39.3 µM; with NCI-H522 lung it was over 100 µM; in the assay on NCI/ADR-RES ovarian, 61 µM; in the assay with SK-OV-3 ovarian, 72.8 µM; in the assay on SNB-19 CNS it was over 100 µM. Moreover, the TGI in the assay with SR leukemia was determined as 32.3 µM; in the assay on UACC-257 melanoma it was 43.4 µM.
Regarding `O=C1N(c2ccccc2)C(=S)/C(=C/c2ccc(Cl)cc2)N1c1ccc(Cl)cc1`, the TGI in the assay on HL-60(TB) leukemia is 74.4 µM; in the assay with MDA-MB-231 breast it was 90.5 µM; with NCI-H522 lung, 38.4 µM; in the assay on NCI/ADR-RES ovarian it was over 100 µM; with SK-OV-3 ovarian it was 95.7 µM; with SNB-19 CNS, over 100 µM. Also, the TGI is 15.5 µM with SR leukemia and over 100 µM with UACC-257 melanoma.
As for `O=S(=O)(O)c1cc(S(=O)(=O)O)c2c(N=Nc3ccc(N=Nc4ccccc4)cc3)c(O)ccc2c1`, the TGI in the assay on HL-60(TB) leukemia, in the assay on MDA-MB-231 breast, in the assay with NCI-H522 lung, in the assay on NCI/ADR-RES ovarian, in the assay with SK-OV-3 ovarian and in the assay on SNB-19 CNS was over 100 µM throughout. Further, the TGI in the assay on SR leukemia and with UACC-257 melanoma was over 100 µM in each case.
